The subject of this experiment is splenocytes (glatiramer specific T cells). As to the kind of experiment: Ex-vivo testing in CJSL mice: cytokine secretion by splenocytes activated in vitro with GA RS after daily feeding. Details: key: BQL: Below Quantifiable Limit; BDL: Below Detectable Limit; AQL: Above Quantifiable Limit. The conditions noted are these: 50 μg/ml GA RS in-vitro. As for the experimental part: Studies were conducted to test the potential properties of the mixture of polypeptides of the invention. In particular, the studies were to determine whether the mixture of polypeptides of the invention would elicit an immune response with similar cytokine patterns as those elicited by glatiramer acetate when tested in an ex-vivo model in mice.
Beginning on Day 0, groups of 4 CJSL Mice were fed daily with GA reference standard (GA RS, 12.5 μg/kg). Glatiramer Tannate (amount equivalent to 18.75 μg/kg), tannic acid (negative control, in an amount equivalent to the tannate administered to the 18.75 μg/kg glatiramer tannate group) or phosphate buffered saline (PBS—placebo control). During period of study, subsets of mice in each treatment group were sacrificed on days 4, 7 and 11. Spleens were excised and primary cell cultures were prepared. The effect of the treatment was tested by in-vitro activation of splenocytes with GA RS 50 μg/ml. The response of the cells to the challenge is a measure of previous exposure to Glatiramer and the generation of glatiramer specific T cells. T-cell response was monitored by detection of cytokines secreted from activated cells by ELISA analysis. The levels of IL-2, IL-3 and IL-5 cytokines were examined.

[1] abbreviates: glatiramer dose NA (tannic acid equivalent to the tannate of the 18.75 group) daily oral, day of treatment 4.
[2] abbreviates: glatiramer dose NA (tannic acid equivalent to the tannate of the 18.75 group) daily oral, day of treatment 7.
Where [3] appears, read: glatiramer dose NA (tannic acid equivalent to the tannate of the 18.75 group) daily oral, day of treatment 11.
[4] abbreviates: glatiramer treatment dose 12.5 Mg/kg daily oral, day of treatment 4.
Setting [5] is: glatiramer treatment dose 12.5 Mg/kg daily oral, day of treatment 7.
[6] abbreviates: glatiramer treatment dose 12.5 Mg/kg daily oral, day of treatment 11.

On to `O=C(OC[C@H]1O[C@@H](OC(=O)c2cc(O)c(O)c(OC(=O)c3cc(O)c(O)c(O)c3)c2)[C@H](OC(=O)c2cc(O)c(O)c(OC(=O)c3cc(O)c(O)c(O)c3)c2)[C@@H](OC(=O)c2cc(O)c(O)c(OC(=O)c3cc(O)c(O)c(O)c3)c2)[C@@H]1OC(=O)c1cc(O)c(O)c(OC(=O)c2cc(O)c(O)c(O)c2)c1)c1cc(O)c(O)c(OC(=O)c2cc(O)c(O)c(O)c2)c1` [Tannic Acid, tannic acid], for which the IL-2 secretion entry by setting is: under setting [1], “BQL”; under setting [2], 26.7 pg/mL; under setting [3], 16.6 pg/mL. For the same molecule, the IL-3 secretion result reads like this: under setting [1], “BQL”; under setting [2], 76.9 pg/mL; under setting [3], 63.2 pg/mL. Besides, the IL-5 secretion result reads like this: under setting [1], “BDL”; under setting [2], “BQL”; under setting [3], “BQL”.
“L-glutamic acid polymer with L-alanine, L-lysine and L-tyrosine, acetate (salt) [GA]”: under setting [4], the IL-2 secretion entry is given as “BQL”, the IL-3 secretion result is “BQL” and the IL-5 secretion entry is recorded as “BDL”. For the same molecule, under setting [5], the IL-2 secretion worked out at 121.5 pg/mL, the IL-3 secretion amounted to 456.5 pg/mL and the IL-5 secretion entry is recorded as “BQL”. Moreover, under setting [6], the IL-2 secretion is 119.0 pg/mL, the IL-3 secretion came to 701.6 pg/mL and the IL-5 secretion entry is “BQL”.

(Values after patent US20080118553A1, “Tannate salt form of polypeptide mixtures, their preparation and use” (priority 2006, published 2008).)
